In ChEMBL document CHEMBL4334550, “Toward Orally Absorbed Prodrugs of the Antibiotic Aztreonam. Design of Novel Prodrugs of Sulfate Containing Drugs. Part 2” (ACS Med Chem Lett, 2020) one finds Drug metabolism, Stability and bioavailability data, which are given here for four compounds.

Structures are written as SMILES.

Data set [1] deals with T1, Liver carboxylesterase 1 (Homo sapiens, UniProt P23141).
T1 sequence (P23141 whole entry): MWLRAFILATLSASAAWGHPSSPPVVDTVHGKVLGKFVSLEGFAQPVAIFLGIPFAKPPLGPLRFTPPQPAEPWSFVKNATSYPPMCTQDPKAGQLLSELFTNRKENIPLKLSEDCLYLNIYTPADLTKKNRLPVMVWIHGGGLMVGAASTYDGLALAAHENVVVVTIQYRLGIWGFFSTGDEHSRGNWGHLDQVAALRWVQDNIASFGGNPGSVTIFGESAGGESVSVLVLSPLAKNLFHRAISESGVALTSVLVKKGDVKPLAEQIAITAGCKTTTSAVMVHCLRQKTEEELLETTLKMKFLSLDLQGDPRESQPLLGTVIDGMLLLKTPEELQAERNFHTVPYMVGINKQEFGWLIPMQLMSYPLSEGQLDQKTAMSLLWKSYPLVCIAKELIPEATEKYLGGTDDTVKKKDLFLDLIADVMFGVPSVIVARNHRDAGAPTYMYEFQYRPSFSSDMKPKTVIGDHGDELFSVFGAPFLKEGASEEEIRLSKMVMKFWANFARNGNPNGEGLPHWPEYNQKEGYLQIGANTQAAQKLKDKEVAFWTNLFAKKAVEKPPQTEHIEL
The data set can be described thus: Prodrug conversion assessed as CES1 (unknown origin) mediated aztreonam release in 2.5% acetonitrile in 0.05M citrate buffer at 0.5 mg/ml at pH 4.7 at 37degC measured immediately in presence of 150 units/ml of CES1 enzyme by HPLC analysis. The settings on record: BLD = below limit of detection. The data set is classed as ADME.

The target in data set [2] is T1, Liver carboxylesterase 1. The data set can be described thus: Prodrug conversion assessed as CES1 (unknown origin) mediated aztreonam release in 2.5% acetonitrile in 0.05M citrate buffer at 0.5 mg/ml at pH 4.7 at 37degC after 5 mins in presence of 150 units/ml of CES1 enzyme by HPLC analysis. The format is ADME. The settings on record: pH 4.7, 5 min.
Data set [3] addresses T1, Liver carboxylesterase 1. Kind of data set: Prodrug conversion assessed as CES1 (unknown origin) mediated aztreonam release in 2.5% acetonitrile in 0.05M citrate buffer at 0.5 mg/ml at pH 4.7 at 37degC after 20 mins in presence of 150 units/ml of CES1 enzyme by HPLC analysis. The format is ADME. Conditions: pH 4.7, 20 min.
Data set [4] in a line: Stability of the compound in 2.5% acetonitrile in 0.05M citrate buffer assessed as aztreonam and beta-lactam ring-opened prodrug intermediate release at 0.5 mg/ml at pH 4.7 at 37degC by HPLC analysis. The format is physicochemical.
The target of data set [5] is T1, Liver carboxylesterase 1. Kind of data set: Prodrug conversion assessed as CES1 (unknown origin) mediated aztreonam release in 2.5% acetonitrile in 0.05M citrate buffer at 0.5 mg/ml at pH 4.7 at 37degC after 2 mins in presence of 150 units/ml of CES1 enzyme by HPLC analysis. Conditions: pH 4.7, 2 min. The format is ADME.
For data set [6], the target named is T1, Liver carboxylesterase 1. The data set can be described thus: Prodrug conversion assessed as CES1 (unknown origin) mediated aztreonam release in 2.5% acetonitrile in 0.05M citrate buffer at 0.5 mg/ml at pH 4.7 at 37degC after 10 mins in presence of 150 units/ml of CES1 enzyme by HPLC analysis. The data set is classed as ADME. The settings on record: pH 4.7, 10 min.

Data set [7] addresses T1, Liver carboxylesterase 1. The data set can be described thus: Prodrug conversion assessed as CES1 (unknown origin) mediated aztreonam and beta-lactam ring-opened prodrug intermediate release in 2.5% acetonitrile in 0.05M citrate buffer at 0.5 mg/ml at pH 4.7 at 37degC in presence of CES1 at lower concentration by HPLC analysis. The format is ADME.
In data set [8] the target is T1, Liver carboxylesterase 1. Kind of data set: Prodrug conversion assessed as CES1 (unknown origin) mediated aztreonam release in 2.5% acetonitrile in 0.05M citrate buffer at 0.5 mg/ml at pH 4.7 at 37degC after 30 mins in presence of 150 units/ml of CES1 enzyme by HPLC analysis. The data set is classed as ADME. The settings on record: pH 4.7, 0.5 h.
In data set [9] the target is T1, Liver carboxylesterase 1. The data set can be described thus: Prodrug conversion assessed as CES1 (unknown origin) mediated aztreonam release in 2.5% acetonitrile in 0.05M citrate buffer at 0.5 mg/ml at pH 4.7 at 37degC after 1 min in presence of 150 units/ml of CES1 enzyme by HPLC analysis. The data set is classed as ADME. Conditions: pH 4.7, 1 min, BLD = below limit of detection.

Data set [10] is described as follows: Oral bioavailability in human at 500 mg administered twice as 250 mg tablet formulation measured 16 hrs post dose. The data set is classed as ADME, organism-based. The settings on record: in vivo.
Data set [11] is described as follows: Oral bioavailability in human at 500 mg administered as solution measured 16 hrs post dosing. The format is ADME, organism-based. Conditions: in vivo.

Take `C[C@H]1[C@H](NC(=O)/C(=N\OC(C)(C)C(=O)O)c2csc(N)n2)C(=O)N1S(=O)(=O)OCC(C)(C)CCOC(=O)C(C)(C)C.O=C(O)C(F)(F)F`: the Drug metabolism entry on Liver carboxylesterase 1 [1] is given as “Bld”; at Liver carboxylesterase 1 [2], above 95%; at Liver carboxylesterase 1 [3] it was above 95%; on Liver carboxylesterase 1 [5], above 95%; at Liver carboxylesterase 1 [6] it was above 95%; on Liver carboxylesterase 1 [7] it was “Metabolite_Detected”. Moreover, the Drug metabolism on Liver carboxylesterase 1 [8] is given as above 95%. The Stability result in [4] is given as “Unstable”.
`CCOC(=O)C(C)(C)COS(=O)(=O)N1C(=O)[C@@H](NC(=O)/C(=N\OC(C)(C)C(=O)O)c2csc(N)n2)[C@@H]1C.O=C(O)C(F)(F)F`: the Drug metabolism entry at Liver carboxylesterase 1 [1] is reported as “Bld”; at Liver carboxylesterase 1 [9], “Bld”; at Liver carboxylesterase 1 [2], 8%; at Liver carboxylesterase 1 [3], 23%; at Liver carboxylesterase 1 [5] it was 4%; at Liver carboxylesterase 1 [6], 14%. Besides, the Drug metabolism result at Liver carboxylesterase 1 [7] is on record as “Metabolite_Detected”; at Liver carboxylesterase 1 [8], 28%. In addition, the Stability entry in data set [4] is “Unstable”.
With `C[C@H]1[C@H](NC(=O)/C(=N\OC(C)(C)C(=O)O)c2csc(N)n2)C(=O)N1S(=O)(=O)O` [AZTREONAM], the bioavailability in [10] and in data set [11] was below 1% throughout.
Regarding `CCOC(=O)CCC(C)(C)COS(=O)(=O)N1C(=O)[C@@H](NC(=O)/C(=N\OC(C)(C)C(=O)O)c2csc(N)n2)[C@@H]1C.O=C(O)C(F)(F)F`, the Drug metabolism entry at Liver carboxylesterase 1 [1] is on record as “Bld”; on Liver carboxylesterase 1 [2] it was 76%; on Liver carboxylesterase 1 [3] it was 90%; at Liver carboxylesterase 1 [5], 45%; at Liver carboxylesterase 1 [6], 86%; on Liver carboxylesterase 1 [7] it was “Metabolite_Detected”. Further, the Drug metabolism at Liver carboxylesterase 1 [8] is 90%. Also, the Stability result in [4] was “Unstable”.

For orientation: bioavailability means dose-corrected exposure relative to a reference, in per cent. A higher bioavailability goes with much systemic uptake.
